Source: patent publication EP4682145A1, “BENZOHETEROCYCLIC COMPOUND, AND PREPARATION METHOD THEREFOR AND USE THEREOF” (Cascade Pharmaceuticals, Inc., priority 2023, dated 2024)
Marks after values point to notes of the source that are not given here.

How the values were obtained:
[1] = test system: normal C57BL6/J mice; assay: Oral glucose tolerance test (OGTT) in normal C57BL6/J mice; format: in vivo; details: 1 mg/kg gavage, single dose; for AUC 0-120 minutes: blood glucose AUC
Description: Eighteen normal male C57BL6/J mice (8-9 weeks old) were selected and randomly divided into 3 groups based on body weight and blood glucose levels, with 6 mice in each group. On the day of the OGTT, fasting was initiated at 8:30 AM. At 11:30 AM, drug interventions were administered via gavage (vehicle control, compound 14, 1 mg/kg, and compound 169, 1 mg/kg). At 1:30 PM, glucose (2 g/kg) was administered via gavage, while the blank control group received the vehicle control orally (2% DMSO + 15% solutol + 83% DDW solution) at a dosing volume of 10 mL/kg. Blood glucose measurements during the OGTT were taken at the following time points: 0, 15, 30, 60, 90, and 120 minutes after glucose administration.
Blood glucose levels were measured at 0, 15, 30, 60, and 120 minutes after glucose administration. The area under the curve (AUC) for blood glucose over 120 minutes was calculated. [formula]
(§1) Note: BG0, BG15, BG30, BG60, BG90, and BG120 represent the blood glucose levels at 0, 15, 30, 60, 90, and 120 minutes after glucose administration, respectively.
(§2) Data were expressed as mean ± standard deviation. One-way ANOVA was employed for statistical analysis, with p < 0.05 considered statistically significant.

[2] = test system: normal male C57BL6/J mice; assay: In vivo hypoglycemia risk assay in fasted normal C57BL6/J mice; details: for Blood Glucose / AUC 0-120 minutes: fasted 16 hours; for AUC 0-120 minutes: blood glucose AUC
Description: The blank control group was orally administered with the vehicle control (2% DMO + 15% solutol + 83% DDW solution), with a dosing volume of 10 mL/kg. […] […] Data were expressed as mean ± standard deviation. One-way ANOVA was employed for statistical analysis, with p < 0.05 considered statistically significant.

[3] = test system: high-fat diet-induced DIO mice; assay: Oral glucose tolerance test (OGTT) in high-fat diet-induced DIO mice; format: in vivo
From the text: Normal male C57BL6/J mice (8-9 weeks old) were housed 3-4 per cage and fed a high-fat, high-cholesterol, high-fructose diet (D09100310, Research Diets) for 13 weeks with unrestricted access to water. After 13 weeks of high-fat, high-cholesterol, high-fructose diet feeding, the mice were randomly divided into 5 groups based on body weight and blood glucose levels, with age-matched mice fed a normal diet serving as the normal blank control group, with 6 mice in each group. Under fasting conditions (16 hours), the test compound 169 was administered via oral gavage at different concentrations of 0.03, 0.1, 0.6, and 3 mg/kg, while the normal blank control and model control groups were given the vehicle (15% solutol + 85% DDW solution), with a dosing volume of 10 mL/kg. On the day of administration, blood glucose levels in mice were measured. 2 hours after oral gavage administration, each group was given 2 g/kg of glucose orally. Blood glucose levels were measured at 0, 15, 30, 60, 90, 120, and 150 minutes after glucose administration.
Blood glucose levels were measured at 0, 15, 30, 60, and 120 minutes after glucose administration. […]
as §1, §2

`COc1ccc(F)c(N2CCC(c3oc4cc([C@@H](CC(=O)O)C5CC5)ccc4c3-c3ccc(C(C)(C)C)cc3)CC2)c1` [Compound 169] was tested, and the “Blood Glucose” value ([1]; 0 minutes after glucose (2 g/kg)) was 7.88 ± 0.62 mmol/L, the “Blood Glucose” value ([1]; 15 minutes after glucose (2 g/kg)) was 12.78 ± 1.65 mmol/L and the “Blood Glucose” value ([1]; 30 minutes after glucose (2 g/kg)) was 9.28 ± 1.32 mmol/L. The “Blood Glucose” value ([1]; 60 minutes after glucose (2 g/kg)) was 9.28 ± 1.32 mmol/L, the “Blood Glucose” value ([1]; 90 minutes after glucose (2 g/kg)) was 7.67 ± 2.31 mmol/L and the “Blood Glucose” value ([1]; 120 minutes after glucose (2 g/kg)) was 7.13 ± 1.25 mmol/L. For the same compound, the “AUC 0-120 minutes” value ([1]; 1 mg/kg) was 1075±66.01, the “AUC 0-120 minutes” value ([1]; listed as compound 169, 1 mg/kg) was “significantly reduced” and the “Blood Glucose” value ([2]; 3 mg/kg oral, 0 minutes after administration) was 4.3 ± 0.59 mmol/L. The “Blood Glucose” value ([2]; 3 mg/kg oral, 30 minutes after administration) was 5.42 ± 0.56 mmol/L, the “Blood Glucose” value ([2]; 3 mg/kg oral, 60 minutes after administration) was 4.73 ± 0.82 mmol/L and the “Blood Glucose” value ([2]; 3 mg/kg oral, 120 minutes after administration) was 4.1 ± 0.51 mmol/L. For the same compound, the “Blood Glucose” value ([2]; 10 mg/kg oral, 0 minutes after administration) was 4.65 ± 0.75 mmol/L, the “Blood Glucose” value ([2]; 10 mg/kg oral, 30 minutes after administration) was 6.1 ± 1.01 mmol/L and the “Blood Glucose” value ([2]; 10 mg/kg oral, 60 minutes after administration) was 4.92 ± 1.01 mmol/L. For the same compound, the “Blood Glucose” value ([2]; 10 mg/kg oral, 120 minutes after administration) was 4 ± 0.87 mmol/L, the “AUC 0-120 minutes” value ([2]; 3 mg/kg oral) was 563 ± 34.91 mmol·min and the “AUC 0-120 minutes” value ([2]; 10 mg/kg oral) was 594 ± 49.00 mmol·min. The risk of hypoglycemia ([2]; judged from AUC0-120 min versus blank control, Glibenclamide 10 mg/kg, compound 169 at 3 mg/kg and 10 mg/kg) was “no risk of hypoglycemia”, the “Blood Glucose” value ([3]; 0.03 mg/kg oral gavage, 0 minutes after glucose (2 g/kg)) was 10.78 ± 0.81 mmol/L and the “Blood Glucose” value ([3]; 0.03 mg/kg oral gavage, 15 minutes after glucose) was 20.08 ± 2.94 mmol/L. The “Blood Glucose” value ([3]; 0.03 mg/kg oral gavage, 30 minutes after glucose) was 16.63 ± 3.66 mmol/L, the “Blood Glucose” value ([3]; 0.03 mg/kg oral gavage, 60 minutes after glucose) was 14.62 ± 3.62 mmol/L and the “Blood Glucose” value ([3]; 0.03 mg/kg oral gavage, 90 minutes after glucose) was 14.92 ± 2.34 mmol/L. For the same compound, the “Blood Glucose” value ([3]; 0.03 mg/kg oral gavage, 150 minutes after glucose) was 10.75 ± 1.1 mmol/L, the “Blood Glucose” value ([3]; 0.1 mg/kg oral gavage, 0 minutes after glucose (2 g/kg)) was 9.28 ± 2.89 mmol/L and the “Blood Glucose” value ([3]; 0.1 mg/kg oral gavage, 15 minutes after glucose) was 17.65 ± 2.09 mmol/L. The “Blood Glucose” value ([3]; 0.1 mg/kg oral gavage, 30 minutes after glucose) was 18.67 ± 4.11 mmol/L, the “Blood Glucose” value ([3]; 0.1 mg/kg oral gavage, 60 minutes after glucose) was 13.53 ± 3.03 mmol/L and the “Blood Glucose” value ([3]; 0.1 mg/kg oral gavage, 90 minutes after glucose) was 10.27 ± 1.68 mmol/L. For the same compound, the “Blood Glucose” value ([3]; 0.1 mg/kg oral gavage, 120 minutes after glucose) was 10.05 ± 1.47 mmol/L, the “Blood Glucose” value ([3]; 0.1 mg/kg oral gavage, 150 minutes after glucose) was 10.17 ± 1.68 mmol/L and the “Blood Glucose” value ([3]; 0.6 mg/kg oral gavage, 0 minutes after glucose (2 g/kg)) was 9.57 ± 2.06 mmol/L. For the same compound, the “Blood Glucose (mmol/L)” value ([3]; 0.6 mg/kg oral gavage, 15 minutes after glucose) was 16.48± 2.15** * mmol/L, the “Blood Glucose” value ([3]; 0.6 mg/kg oral gavage, 30 minutes after glucose) was 12.97 ± 3.71 mmol/L and the “Blood Glucose” value ([3]; 0.6 mg/kg oral gavage, 60 minutes after glucose) was 11.98 ± 2.95 mmol/L. For the same compound, the “Blood Glucose” value ([3]; 0.6 mg/kg oral gavage, 90 minutes after glucose) was 11.27 ± 2.66 mmol/L, the “Blood Glucose” value ([3]; 0.6 mg/kg oral gavage, 120 minutes after glucose) was 9.12 ± 2.14 mmol/L and the “Blood Glucose” value ([3]; 0.6 mg/kg oral gavage, 150 minutes after glucose) was 9.52 ± 1.62 mmol/L. The “Blood Glucose” value ([3]; 3 mg/kg oral gavage, 0 minutes after glucose (2 g/kg)) was 13.02 ± 2.46 mmol/L, the “Blood Glucose” value ([3]; 3 mg/kg oral gavage, 15 minutes after glucose) was 17.22 ± 2.02 mmol/L and the “Blood Glucose” value ([3]; 3 mg/kg oral gavage, 30 minutes after glucose) was 14 ± 3.49 mmol/L. For the same compound, the “Blood Glucose” value ([3]; 3 mg/kg oral gavage, 60 minutes after glucose) was 10.52 ± 2.23 mmol/L, the “Blood Glucose” value ([3]; 3 mg/kg oral gavage, 90 minutes after glucose) was 9.88 ± 0.85 mmol/L and the “Blood Glucose” value ([3]; 3 mg/kg oral gavage, 120 minutes after glucose) was 8.3 ± 1.63 mmol/L. The “Blood Glucose (mmol/L)” value ([3]; 3 mg/kg oral gavage, 150 minutes after glucose) was 7.37±1.44* * mmol/L, the “AUC0-150 min” value ([3]; blood glucose AUC, 0.03 mg/kg oral gavage) was 2194 ± 132.70 mmol·min and the “AUC0-150 min (mmol*min)” value ([3]; blood glucose AUC, 0.1 mg/kg oral gavage, 0.1 mg/kg) was “significantly reduced”. The “AUC0-150 min (mmol*min)” value ([3]; blood glucose AUC, 0.6 mg/kg oral gavage, 0.6 mg/kg) was 1725± 119.90 **** mmol*min, the “AUC0-150 min (mmol*min)” value ([3]; blood glucose AUC, 0.6 mg/kg oral gavage, listed as compound 169, 0.6 mg/kg) was “significantly reduced” and the “AUC0-150 min (mmol*min)” value ([3]; blood glucose AUC, 3 mg/kg oral gavage, 3 mg/kg) was 1642±91.83 **** mmol*min. The “AUC0-150 min (mmol*min)” value ([3]; blood glucose AUC, 3 mg/kg oral gavage, listed as compound 169, 3 mg/kg) was “significantly reduced”.
